Measurements taken from patent US5563176A (priority 1994, dated 1996).
≈ marks a conversion by molar mass, not a printed value. Where “and” joins values, the source holds several entries; their conditions need not be identical. Equal values may be shown once. Read-outs that look alike come from different tables or passages of the source.

Columns and labels:
[1] = tested on: human lung adenocarcinoma MV522; details: in vivo
[2] = tested on: human lung adenocarcinoma MV522; assay: animal or person; details: MV522, ip, read-out: life span
MV522 cells = assay: cells; format: cell-based, human; details: for IC50: Homo sapiens, MV522, 2 h, read-out: Two hour IC50
[3] = tested on: MX-1 mammary carcinoma xenograft; assay: MX-1 human breast tumor xenograft in nude mice; format: in vivo
Description: (§1) Nude mice are implanted subcutaneously (s.c.) by trocar with fragments of MX-1 mammary carcinomas harvested from s.c. growing MX-1 tumors in nude mice hosts. When tumors are approximately 5 mm×5 mm in size (usually about ten days after inoculation), the animals are pair-matched into treatment and control groups. Each group contains 10 tumored mice, each of which is eartagged and followed individually throughout the experiment. The administration of drugs or vehicle begins the day the animals are pair-matched (day 1). The doses, route of drug administration and schedule are selected as appropriate for the study in question, If the maximum tolerated dose (MTD) of an agent is not known, it was determined in an initial dosing experiment in non-tumored mice. In a typical experiment, drugs are given at their MTD and 1/2 MTD doses i.p. on a daily×5 schedule.
The experiment is usually terminated when control tumors reach a size of 2-3 g. Mice are weighed twice weekly, and tumor measurements are taken by calipers twice weekly, starting on day 1. These tumor measurements are converted to mg tumor weight by a well-known formula, and from these calculated tumor weights the termination date can be determined. Upon termination, all mice are weighed, sacrificed, and their tumors excised. Tumors, are weighed, and the mean tumor weight per group is calculated. In this model, the mean treated tumor weight/mean control tumor weight×100% (T/C) is subtracted from 100% to give the tumor growth inhibition (TGI) for each group).
Some drugs cause minor shrinkage in the MX-1 model. With these agents, the final weight of a given tumor is subtracted from its own weight at the start of treatment on day 1. This difference divided by the initial tumor weight is the % shrinkage. A mean % tumor shrinkage can be calculated from data from the mice in a group that experienced MX-1 regressions. If the tumor completely disappears in a mouse, this is considered a complete regression or complete tumor shrinkage.
(§2) HMAF was evaluated against the MX-1 mammary carcinoma xenograft at the MTD of 7.5 mg/kg, and also at 5.0 mg/kg, i.p. daily×5, delivered in 10% cremophor, 20% ethanol and 70% isotonic saline. The 7.5 mg mg/kg dose caused no lethality, or unacceptable weight loss to the nude mice (day 8 weight loss=9.5%). […] The 5.0 mg/kg dose produced 2 complete regressions, and an average 88% tumor shrinkage in the other 8 mice.

HT-29 human colon tumor = assay: in vitro activity, HT-29; format: cell-based; details: HT-29, HT29
[4] = tolerability in nude mice (MX-1 study); format: in vivo
Description: as §1, §2

HL60 cells = assay: cells; format: cell-based; details: Homo sapiens, HL-60, 48 h, read-out: 48 hour IC50
P388 leukemia = P388 leukemia in mice; format: in vivo, murine
Protocol: (§3) HMAF was also evaluated against P388 leukemia in mice. The tumor inoculum is prepared by removing ascites fluid containing P388 cells from tumored B6D2F1 mice, centrifuging the cells, and then resuspending the leukemia cells in saline. Mice receive 1×10^6 P388 cells i.p. on day 0. Initial dosing experiments on a daily×5 schedule in B6D2F1 mice established the MTD of HMAF as 7.5 mg/kg. HMAF was tested at doses of 7.5 and 5.0 mg/kg vs. the P388 leukemia model. […] A T/C value of 150 means that treated mice lived 50% longer than the controls. Weight loss at the higher dose was 13% on day 8, again confirming that 7.5 mg/kg is the MTD for this agent on the daily×5 schedule.

B16 melanoma [5] = assay: in vitro activity, B16; format: cell-based
8392 cells = assay: cells; format: cell-based; details: 48 h, read-out: 48 hour IC50
HL60 cells (myeloid) = assay: cells; format: cell-based, human; details: for IC50: Homo sapiens, HL-60, 2 h, read-out: Two hour IC50
MV522 = assay: cells; format: cell-based; details: Homo sapiens, MV522, 48 h, read-out: 48 hour IC50
B16 melanoma [6] = assay: B16 melanoma in mice; format: in vivo; details: same doses as P388
[7] = dosing/tolerability in B6D2F1 mice; format: in vivo
Protocol: as §3

murine P388 cells = assay: in vitro activity, P388; format: cell-based
MCF-7 human breast tumor = assay: in vitro activity, MCF-7; format: cell-based
8392 cells (B-cell) = assay: cells; format: cell-based; details: 2 h, read-out: Two hour IC50
HL-60 cells = assay: cells; format: cell-based, human
Dunning leukemia = details: NCI DCT; cited from earlier work
[8] = kinetics of the reaction with dilute HCl; format: physicochemical; details: illudin M
Description: Consistent with the above hypothesis are the results of the kinetics of the reaction of illudin M and dehydroilludin M with dilute HCl. […] In the reaction with dehydroilludin M, no intermediate could be detected by NMR spectroscopy. Presumably it formed too slowly and is too short-lived to be detected.

[9] = tested on: HL60/MRI cells (human myeloid leukemia tumor cells); details: in vivo, iv

## CC(=O)O[C@H]1C(=O)[C@@]2(C)[C@H]([C@H](OC(=O)c3ccccc3)[C@]3(O)C[C@H](OC(=O)[C@H](O)[C@@H](NC(=O)c4ccccc4)c4ccccc4)C(C)=C1C3(C)C)[C@]1(OC(C)=O)CO[C@@H]1C[C@@H]2O [taxol]
[1]
  life span versus control: no significant increase in the life span
  tumor growth response: failed to inhibit tumor growth
[1]; ip, 4 mg/kg
  life span: 120 ± 10%
[1]; ip, 6 mg/kg
  drug toxicity: drug toxicity was now killing the animals
[2]
  response vs control in vivo at 4 mg/kg: 100 ± 10%
  response vs control in vivo at 6 mg/kg: 93 ± 22%
  response vs control in vivo at 20 mg/kg: 113 ± 22%

## CC1=C(CO)C2=C(C)C3(CC3)[C@@](C)(O)C(=O)C2=C1 [6-hydroxymethylacylfulvene]
MV522 cells
  IC50: 114 ± 28 nM
MV522 cells; MV522, 2 and 48 hour
  toxicity to target tumor cells: markedly toxic
[1]
  efficacy in this model: markedly increased the life span
  life span versus control: lived significantly longer
  toxic side effects (activity, weight gain, food or water intake): no evidence of toxic side effects
[1]; 10 mg/kg
  tumor growth response: Tumor regression
[1]; ip, 10 mg/kg
  animals alive: 2 animals alive, ? cured
  life span: 233 ± 18% and 232 ± 20% and > 204%
[3]; 5.0 mg/kg i.p. daily×5, of 10 mice
  complete regressions: 2
[3]; 5.0 mg/kg i.p. daily×5, other 8 mice
  average tumor shrinkage: 88%
[3]; 7.5 mg/kg i.p. daily×5, of 10 mice
  complete tumor regressions: 4 mice
[3]; 7.5 mg/kg i.p. daily×5, other 6 mice
  average tumor shrinkage: 91%
[3]; in vivo
  activity in MX-1 xenograft: highly active
HT-29 human colon tumor
  IC50: 0.05 µg/mL (≈ 0.203 µM)
[4]; 7.5 mg/kg i.p. daily×5
  lethality: no lethality
[4]; 7.5 mg/kg i.p. daily×5, day 8
  weight loss: 9.5%
[4]; mouse, in vivo, ip, i.p. daily×5, nude mice
  MTD: 7.5 mg/kg
HL60 cells
  IC50: 4 ± 1 nM
P388 leukemia; 5.9 mg/kg
  treated/control (T/C): 137
P388 leukemia; 6.5 mg/kg
  treated/control (T/C): 140
B16 melanoma [5]; B16, listed as HMAF
  IC50: 4.65 µg/mL and 3.73 µg/mL
B16 melanoma [5]; Mus musculus, B16, B16, read-out: IC50
  IC50: 3.73 to 4.65 µg/mL (≈ 15.1 to 18.9 µM)
8392 cells
  IC50: 76 ± 4 nM
HL60 cells (myeloid)
  toxicity to target tumor cells: markedly toxic
  IC50: 150 ± 11 nM
MV522
  IC50: 73 ± 8 nM
B16 melanoma [6]
  activity against B16 melanoma in mice: inactive
[7]; higher dose, day 8, P388 study
  weight loss: 13%
[7]; mouse, in vivo, daily×5, B6D2F1 mice
  MTD: 7.5 mg/kg
Murine P388 cells; Mus musculus, P388, P388, read-out: IC50
  IC50: 0.16 to 0.32 µg/mL (≈ 0.65 to 1.3 µM)
Murine P388 cells; P388, listed as HMAF
  IC50: 0.165 µg/mL and 0.319 µg/mL
[2]
  response vs control in vivo at 1 mg/kg: 135 ± 10%
  response vs control in vivo at 5 mg/kg: 154 ± 13%
MCF-7 human breast tumor; Homo sapiens, MCF7, MCF-7, read-out: IC50
  IC50: 0.036 to 0.07 µg/mL (≈ 0.146 to 0.284 µM)
MCF-7 human breast tumor; MCF-7, listed as HMAF
  IC50: 0.036 µg/mL and 0.043 µg/mL
8392 cells (B-cell)
  IC50: 7360 nM

## COc1cccc2c1C(=O)c1c(O)c3c(c(O)c1C2=O)C[C@@](O)(C(=O)CO)C[C@@H]3O[C@H]1C[C@H](N)[C@H](O)[C@H](C)O1 [Adriamycin]
[1]
  life span versus control: no significant increase in the life span
[1]; ip, 2.6 mg/kg
  life span: 98 ± 12% and 150 ± 25%

## Cc1cc2c(c(C)c1CCO)C(=O)[C@@H](C)[C@@H]2O [Pterosin C]
HL-60 cells; read-out: IC50
  IC50: 12500 nM

## CO[C@@]12[C@H](COC(N)=O)C3=C(C(=O)C(C)=C(N)C3=O)N1C[C@@H]1N[C@@H]12 [mitomycin C]
[1]
  life span versus control: no significant increase in the life span
[1]; ip, 2.4 mg/kg
  life span: 111 ± 2% and 149 ± 12%

## CC(=O)OCC1=C(C)C=C2C(=O)[C@](C)(O)C3(CC3)C(C)=C21 [6-acetoxymethylacylfulvene]
MV522 cells
  IC50: 1070 nM
HL60 cells
  IC50: 806 ± 30 nM
8392 cells
  IC50: 4430 nM
HL60 cells (myeloid)
  IC50: 3330 nM
MV522
  IC50: 486 ± 42 nM
8392 cells (B-cell)
  IC50: 47500 nM

## CC1=C(Cc2ccc(O)cc2)C2=C(C)C3(CC3)[C@@](C)(O)C(=O)C2=C1 [6-(p-hydroxybenzyl)acylfulvene, 6-(p-Hydroxybenzyl)acylfulvene]
MV522 cells
  IC50: 1180 nM
[1]
  efficacy in this model: effective in this model
HL60 cells
  IC50: 382 ± 39 nM
8392 cells
  IC50: 11100 nM
HL60 cells (myeloid)
  IC50: 264 ± 38 nM
MV522
  IC50: 615 ± 56 nM
[2]
  response vs control in vivo at 15 mg/kg: 125 ± 16%
  response vs control in vivo at 20 mg/kg: 126 ± 22%
8392 cells (B-cell)
  IC50: 95200 nM

## CC1=C(Br)C2=C(C)C3(CC3)[C@@](C)(O)C(=O)C2=C1 [6-bromoacylfulvene, 6-Bromoacylfulvene]
MV522 cells
  toxicity to target tumor cells: markedly toxic
  IC50: 4180 nM
[1]
  efficacy in this model: effective in this model
HL60 cells
  IC50: 412 ± 21 nM
8392 cells
  IC50: 1190 nM
HL60 cells (myeloid)
  toxicity to target tumor cells: markedly toxic
  IC50: 803 ± 88 nM
MV522
  IC50: 356 ± 61 nM

## O=NN(CCCl)C(=O)NCCCl [BCNU]
HL-60 cells; Homo sapiens, HL-60
  IC50: 23300 nM

## CC1=C(I)C2=C(C)C3(CC3)[C@@](C)(O)C(=O)C2=C1 [6-iodoacylfulvene, 6-Iodoacylfulvene]
MV522 cells
  toxicity to target tumor cells: markedly toxic
  IC50: 956 ± 152 nM
HL60 cells
  IC50: 290 ± 12 nM
8392 cells
  IC50: 1700 nM
HL60 cells (myeloid)
  toxicity to target tumor cells: markedly toxic
  IC50: 2600 nM
MV522
  IC50: 556 ± 47 nM
[2]
  response vs control in vivo at 20 mg/kg: 120 ± 34%
8392 cells (B-cell)
  IC50: 10300 nM

## C[C@@]1(CO)[C@H](O)CC[C@@]2(C)[C@H]1CC[C@H]1C[C@@H]3C[C@@]12CC[C@]3(O)CO [Aphidocolin]
HL-60 cells; read-out: IC50
  IC50: 2100 nM

## CC1=C2C(=CC(C)(C)C2O)C(=O)[C@](C)(O)C12CC2 (stereo partly drawn) [Illudin M, reference compound]
HL-60 cells; Homo sapiens, HL-60
  IC50: 10 nM
Dunning leukemia
  life span of rats with Dunning leukemia: significantly increased the life span
[8]
  half-life: 2.47 h
  k, pseudo first-order reaction: 4.7×10^-3

## CC1=CC2=C(C)C3(CC3)[C@@](C)(O)C(=O)C2=C1 [Illudofulvene]
MV522 cells
  IC50: 727 ± 180 nM
HL60 cells
  IC50: 364 ± 74 nM
8392 cells
  IC50: 833 ± 152 nM
HL-60 cells; Homo sapiens, HL-60
  IC50: 500 nM
HL60 cells (myeloid)
  IC50: 998 ± 244 nM
MV522
  IC50: 349 ± 23 nM
[9]
  adverse effects (food or water intake, body weight): did not display any evidence of adverse effect
  inhibition of tumor growth: effective at inhibiting tumor growth
8392 cells (B-cell)
  IC50: 66.4 nM

## CC1=Cc2cc(C)c(C)c(C)c2C1=O [2,5,6,7-tetramethyl-1-indenone, 2,5,6,7-Tetramethyl-1-Indenone]
HL-60 cells; Homo sapiens, HL-60
  IC50: 475 nM

## COc1ccc(CC2=C(C)C=C3C(=O)[C@](C)(O)C4(CC4)C(C)=C32)cc1 [6-(p-methoxybenzyl)acylfulvene]
MV522 cells
  IC50: 2040 nM
HL60 cells
  IC50: 1050 nM
8392 cells
  IC50: 7140 nM
HL60 cells (myeloid)
  IC50: 1960 nM
MV522
  IC50: 1550 nM
8392 cells (B-cell)
  IC50: 35700 nM
